Assay results as given in US11096923B2, “Pharmaceutical composition containing polymyxin B/trimethoprim based therapeutics” (University of Rochester, priority 2016, dated 2021).

Columns and labels:
[1] = system: S. aureus UAMS-1 biofilms; experiment: Biofilm susceptibility; type: cell-based, Staphylococcus aureus; conditions: established S. aureus biofilm, 24 hrs treatment, 32×MIC
Excerpt: Bacterial strains used in these studies include the conventional laboratory strains Pseudomonas aeruginosa PA01 and Staphylococcus aureus UAMS-1, both of which are antibiotic susceptible and capable of forming robust biofilms. See […], Thomas J R, Nelson […]. Role of the accessory gene regulator (agr) in pathogenesis of staphylococcal osteomyelitis. Infection and immunity 1995; 63:3373-3380. Seven clinical keratitis isolates of Pseudomonas aeruginosa, were collected from the Flaum Eye Institute, Rochester N.Y. and 25 clinical isolates of Staphylococcus aureus from geographically distinct regions of the country where purchased from International Health Management Associates (IHMA; Schaumburg, Ill.). For experiments requiring planktonic cultures, the indicated organism was grown overnight in Luria-Bertani broth (LB; […] Biofilms were established by inoculating individual wells of flat-bottom polystyrene plates (Falcon, Corning Life Sciences; Durham, N.C.) with overnight cultures of the indicated organism into 200 ul of fresh LB to a final concentration of 1×10^7 CFU ml^-1. Plates were placed in a 37° C.-humidified incubator for 72 hours to allow static biofilm formation. Non-adherent cells were aspirated and biofilms were washed twice with phosphate-buffered saline prior to each experiment. […] After 24 hrs the remaining media and non-adherent cells were removed, biofilms were suspended in 0.8% NaCl and plated to quantify surviving bacteria. […] Biofilms were treated in increasing increments ranging from 0 to 64×MIC.

S. aureus UAMS-1 = experiment: Selleck library screen in presence of sub-inhibitory polymyxin B/trimethoprim; type: cell-based, Staphylococcus aureus; set-up: key: Growth (+); no growth (−)
Experimental: (§1) To identify agents that potentiate the antimicrobial activity of polymyxin B/trimethoprim we first determined the highest concentration of the polymyxin B/trimethoprim combination that allowed growth of P. aeruginosa strain PAO1 and S. aureus strain UAMS-1.
(§2) For Selleck library screening, individual wells of 96-well microtiter plates containing 88 μl of fresh media were inoculated with approximately 10^5 CFUs of P. aeruginosa strain PAO1 or S. aureus UAMS-1. Next, 2 μl of polymyxin B/trimethoprim was added to a final concentration of 0.2 μg ml^−1 or 1.25 μg ml^−1 for PA01 and UAMS-1, respectively. Library members were then added at either 5 μM or 50 μM final concentration. Plates were incubated at 37° C. for 16 hours and hits were identified as wells with no visible growth.
To do so, 10^5 CFUs of S. aureus strain UAMS-1 were inoculated in individual wells of a microtiter plate supplemented with 1.2 μg ml^−1 of polymyxin B/trimethoprim, (0.25×MIC). Library members were added at low (5 μM) or high (50 μM) concentrations and then scored for agents that inhibited growth following overnight incubation. Such agents were expected to represent compounds that display antimicrobial activity on their own and/or that potentiate the antimicrobial activity of polymyxin B/trimethoprim.

[2] = system: planktonic P. aeruginosa cells; experiment: Antimicrobial kill curves; type: cell-based, Pseudomonas aeruginosa; conditions: 2× MIC, 4 hours post-treatment
Experimental: Overnight cultures of the indicated organism were used to inoculate (1:100 dilution) 100 ml of fresh media and grown to mid-exponential phase. […] Aliquots were taken at 1, 2, 3, 4, and 24 hours, serial diluted and plated for colony forming units.

S. aureus = experiment: Fractional inhibitory concentration, checkerboard MIC; type: cell-based, Staphylococcus aureus; conditions: for MIC in combination: PT combined with rifampicin; for MIC: Staphylococcus aureus
P. aeruginosa = experiment: as above; type: cell-based, Pseudomonas aeruginosa; conditions: for MIC in combination: PT combined with rifampicin; for MIC: Pseudomonas aeruginosa
P. aeruginosa PAO1 = experiment: Selleck library screen in presence of sub-inhibitory polymyxin B/trimethoprim; type: cell-based, Pseudomonas aeruginosa; set-up: key: Growth (+); no growth (−)
Experimental: as §1
as §2, with “growth. […]” for “growth.”

CO[C@H]1/C=C/O[C@@]2(C)Oc3c(C)c(O)c4c(O)c(c(/C=N/N5CCN(C)CC5)c(O)c4c3C2=O)NC(=O)/C(C)=C\C=C\[C@H](C)[C@H](O)[C@@H](C)[C@@H](O)[C@@H](C)[C@H](OC(C)=O)[C@@H]1C [Rifampicin, rifampicin]
0.01 µg/mL: MIC (S. aureus; S. aureus 1071788) | MIC (S. aureus; S. aureus 1094094) | MIC (S. aureus; S. aureus 1094140) | MIC (S. aureus; S. aureus 1094147) | MIC (S. aureus; S. aureus 1094166) | MIC (S. aureus; S. aureus 1097630) | MIC (S. aureus; S. aureus 1103430) | MIC (S. aureus; S. aureus 1122181) | MIC (S. aureus; S. aureus 1122197) | MIC (S. aureus; S. aureus 1132822) | MIC (S. aureus; S. aureus 1142776) | MIC (S. aureus; S. aureus UAMS-1)
−: S. aureus growth, 5 μM (S. aureus UAMS-1; drug 5 μM in presence of 1.2 μg ml^−1 polymyxin B/trimethoprim) | S. aureus growth, 50 μM (S. aureus UAMS-1; drug 50 μM in presence of 1.2 μg ml^−1 polymyxin B/trimethoprim) | P. aeruginosa growth, 5 μM (P. aeruginosa PAO1; drug 5 μM in presence of 0.2 μg ml^−1 polymyxin B/trimethoprim) | P. aeruginosa growth, 50 μM (P. aeruginosa PAO1; drug 50 μM in presence of 0.2 μg ml^−1 polymyxin B/trimethoprim)
0.1 µg/mL: MIC (S. aureus; S. aureus 1094178) | MIC (S. aureus; S. aureus 1111063)
6 log: reduction in CFU at hour 4 [2]
0.05 µg/mL: MIC (S. aureus; S. aureus 1097612) | MIC (S. aureus; S. aureus 1101442) | MIC (S. aureus; S. aureus 1110936) | MIC (S. aureus; S. aureus 1122187) | MIC (S. aureus; S. aureus 1122190) | MIC (S. aureus; S. aureus 1125120) | MIC (S. aureus; S. aureus 1144105)
0.0015 µg/mL: MIC in combination (S. aureus; S. aureus 1071788) | MIC in combination (S. aureus; S. aureus 1094094) | MIC in combination (S. aureus; S. aureus 1094140) | MIC in combination (S. aureus; S. aureus 1094147) | MIC in combination (S. aureus; S. aureus 1094166) | MIC in combination (S. aureus; S. aureus 1097630) | MIC in combination (S. aureus; S. aureus 1103430) | MIC in combination (S. aureus; S. aureus 1122181) | MIC in combination (S. aureus; S. aureus 1122197) | MIC in combination (S. aureus; S. aureus 1132822) | MIC in combination (S. aureus; S. aureus 1142776) | MIC in combination (S. aureus; S. aureus UAMS-1)
3.9 µg/mL: MIC in combination (P. aeruginosa; P. aeruginosa RW03)
0.0076 µg/mL: MIC in combination (S. aureus; S. aureus 1094178) | MIC in combination (S. aureus; S. aureus 1111063) | MIC in combination (S. aureus; S. aureus 1125120)
0.0035 µg/mL: MIC in combination (S. aureus; S. aureus 1097612) | MIC in combination (S. aureus; S. aureus 1101442) | MIC in combination (S. aureus; S. aureus 1110936) | MIC in combination (S. aureus; S. aureus 1122187) | MIC in combination (S. aureus; S. aureus 1122190) | MIC in combination (S. aureus; S. aureus 1144105)
4 log: reduction in biofilm-associated CFU [1]
31.2 µg/mL: MIC (P. aeruginosa; P. aeruginosa RW05)
1.9 µg/mL: MIC in combination (P. aeruginosa; P. aeruginosa PAO1) | MIC in combination (P. aeruginosa; P. aeruginosa RW01) | MIC in combination (P. aeruginosa; P. aeruginosa RW02) | MIC in combination (P. aeruginosa; P. aeruginosa RW04) | MIC in combination (P. aeruginosa; P. aeruginosa RW05) | MIC in combination (P. aeruginosa; P. aeruginosa RW06) | MIC in combination (P. aeruginosa; P. aeruginosa RW07)
15.6 µg/mL: MIC (P. aeruginosa; P. aeruginosa RW01) | MIC (P. aeruginosa; P. aeruginosa RW02) | MIC (P. aeruginosa; P. aeruginosa RW03) | MIC (P. aeruginosa; P. aeruginosa RW04) | MIC (P. aeruginosa; P. aeruginosa RW06) | MIC (P. aeruginosa; P. aeruginosa RW07) | MIC (P. aeruginosa; PAO1, P. aeruginosa PAO1)
